Measurements as given in patent US20250320523A1, “PHAGOCYTOSIS ASSAY COMBINING A SYNTHETIC CELL DEATH SWITCH AND A PHAGOCYTOSIS REPORTER SYSTEM” (Hoffmann-La Roche Inc., priority 2022, published 2025).

Key:
[1] = tested on: H4-iCaspase-SEP-mCherry cells in blood-brain barrier spheroids; assay: Phagocytosis assay in 3D BBB spheroids (H4-iCaspase-SEP-mCherry and HMC3 microglia); assay type: cell-based, human; settings: 100 nM AP20187, day 2, imaged 8 hours
Description: H4 cells were transduced with a lentiviral vector containing iCaspase-SEP-mCherry, single-cell sorted for SEP- and mCherry double-positive cells and expanded in 1 μg/ml Puromycin-containing media to select for stably transduced cells. H4-iCaspase-SEP-mCherry and HMC3 microglia were co-seeded with primary human brain endothelial cells, pericytes and astrocytes (Sciencell) to form blood-brain barrier (BBB) spheroids as described by Simonneau, C et al. Investigating receptor-mediated antibody transcytosis using blood-brain barrier organoid arrays. Fluids Barriers CNS. 2021; 18 (1): 43. Briefly, the cells were combined at a 1:1:1:1:1 ratio and seeded into a glass-bottom GRI3D microwell plate (SUN Biosciences). After 2 days of culture in EGM2 medium (Lonza) with astrocyte growth supplement (Sciencell), a timelapse experiment was performed as described above (for FIG. 4): Apoptosis was induced at t0 by adding 100 nM AP20187 to the media, and time-lapse imaging was immediately started on an inverted fluorescence microscope (Leica) using autofocus, 10× objective, 1 image every 10 minutes for 8 hours or more.

[2] = tested on: H4-iCaspase-SEP-mCherry cells in neurovascular unit model; assay: Phagocytosis assay in 3D neurovascular unit model in microfluidic chip; assay type: cell-based, human; settings: 10 nM AP20187, 3D matrix of microfluidic chip, after 7 days culture
Description: H4 cells were transduced with a lentiviral vector containing iCaspase-SEP-mCherry, single-cell sorted for SEP- and mCherry double positive cells and expanded in 1 μg/ml Puromycin-containing media to select for stably transduced cells. H4-iCaspase-SEP-mCherry and HMC3 microglia were co-seeded with primary human brain endothelial cells, pericytes and astrocytes (Sciencell) at the ratio 1:1:4:0.5:1 and left to self-assemble to neurovascular units inside a fibrin gel matrix in a microfluidic chip (AIM Biotech). The cells were seeded into the microfluidic chips as described in Campisi, M et al.3D Self-Organized Human Blood-Brain Barrier in a Microfluidic Chip. Methods Mol Biol. 2021; 2258:205-219, and the vascular networks were grown over 7 days in EGM2 medium (Lonza) with astrocyte growth supplement (Sciencell). Apoptosis was induced at t0 by adding 10 nM AP20187 to the media, the chips were then fixed in 4% PFA after 30 minutes or 2 h, counterstained with DAPI and imaged on an inverted fluorescence microscope.

[3] = tested on: HEK293 cells transfected with iCaspase9; assay: Apoptosis induction in iCaspase9-transfected HEK293 cells, AnnexinV/viability dye flow cytometry; assay type: cell-based
Description: HEK293 cells were transfected with 2 μg of iCaspase9 construct by nucleofection (Amaxa 4D nucleofector by Lonza, program CM-130) and plated in a 24-well plate. The following day, 100 nM AP20187 was added to the cells, and analyzed 1 h, 2 h or 3 h later. For the control, the cells were incubated with […] Staurosporine for 3 h. For the analysis, the cells were harvested and labeled with AnnexinV-BV421 and viability dye APCeF780 and analyzed by flow cytometry. Apoptotic cells were qualified as AnnexinV-positive and viability dye-negative.

[4] = tested on: efferocytosis by THP-1 macrophages; assay: Efferocytosis of Jurkat-iCaspase-SEP-mCherry cells by THP-1 macrophages, flow cytometry; assay type: cell-based; settings: Jurkat cells pre-treated, then 10 nM AP20187, incubated with THP-1 macrophages
Description: Jurkat cells were transduced with a lentiviral vector containing iCaspase-SEP-mCherry, FACS sorted for SEP- and mCherry-expression and expanded in 1 ug/ml Puromycin-containing media to select for stably transduced cells. For pre-treatments, the Jurkat cells were incubated with GAS6, an efferocytosis enhancer, or Cytochalasin D, an efferocytosis inhibitor, then exposed to 10 nM AP20187 and incubated with THP-1 macrophages. As a control, Jurkat cells were treated with Staurosporin and labeled with pHrodo (red pH-sensitive fluorophore). Efferocytosis was quantified using flow cytometry, by gating for mCherry-positive and SEP-negative cells (apoptotic cells taken up by THP1), and for pHrodo-high cells in the control samples.

[5] = tested on: phagocytosis by iPSC-derived microglia; assay: 2D phagocytosis of apoptotic H4-iCaspase-SEP-mCherry cells by iPSC-derived microglia (Incucyte imaging); assay type: cell-based, human; settings: 1 uM Cytochalasin D added 30 min before imaging; apoptosis induced with 10 nM AP20187
Description: H4 cells were transduced with a lentiviral vector containing iCaspase-SEP-mCherry, single-cell sorted for SEP and mCherry double-positive cells and expanded in 1 μg/ml Puromycin-containing media to select for stably transduced cells. HMC3 or iPSC-derived microglia (Reich, M et al. Alzheimer's Risk Gene TREM2 Determines Functional Properties of New Type of Human iPSC-Derived Microglia. 2021; 11:617860) were seeded in a 96-well imaging plate […]. To visualize microglial morphology during the phagocytosis assay, cells were stained with a far-red viability dye (eBioscience). H4-iCaspase-SEP-mCherry cells were added the next day and left to attach for 3 h. […] Apoptosis was induced at to by adding 10 nM AP20187 to the media, and time-lapse imaging was immediately started on an inverted fluorescence microscope (Leica) or incucyte (Sartorius), 10× objective, 1 image every 10 minutes for 8 hours or more.
The number of phagocytosed cells per area was determined using the incucyte software for automated image quantification, by 1) segmenting individual cells, 2) identifying all H4-iCaspase-SEP-mCherry cells positive for mCherry (red fluorescence) and 3) from those cells, identifying the SEP (green fluorescence) negative cells as phagocytosed cells. […]

Molecule: CC[C@H](C(=O)N1CCCC[C@H]1C(=O)O[C@H](CCc1ccc(OC)c(OC)c1)c1cccc(OCC(=O)NCC(CNC(=O)COc2cccc([C@@H](CCc3ccc(OC)c(OC)c3)OC(=O)[C@@H]3CCCCN3C(=O)[C@@H](CC)c3cc(OC)c(OC)c(OC)c3)c2)CN(C)C)c1)c1cc(OC)c(OC)c(OC)c1 [AP20187]
- SEP signal of spheroids (loss indicates phagocytosis) [1]: gradually lost SEP signal
- time to efficient induction of apoptosis in transduced cells [2]: ≤ 30 min
- apoptotic cells (AnnexinV-positive and viability dye-negative) ([3]; 100 nM AP20187, after 1 h, iCaspase9 HEK293 cells): 88%

Molecule: C=C1[C@@H](C)[C@H]2[C@H](Cc3ccccc3)NC(=O)[C@]23[C@H](OC(C)=O)/C=C/[C@@](C)(O)C(=O)[C@@H](C)C/C=C/[C@H]3[C@@H]1O [Cytochalasin D]
- uptake of apoptotic cells by macrophages [4]: lowest uptake
- onset and total amount of phagocytosed apoptotic cells [5]: reduces both the onset and total amount

Molecule: CN[C@@H]1C[C@H]2O[C@@](C)([C@@H]1OC)n1c3ccccc3c3c4c(c5c6ccccc6n2c5c31)C(=O)NC4 [Staurosporine]
- apoptotic cells (AnnexinV-positive and viability dye-negative) ([3]; Staurosporine, after 3 h): 36%

B1: GAS6: an efferocytosis enhancer (protein, UniProt Q14393 31-678, looked up)
Growth arrest-specific …: ALLPAREATQFLRPRQRRAFQVFEEAKQGHLERECVEELCSREEAREVFENDPETDYFYPRYLDCINKYGSPYTKNSGFATCVQNLPDQCTPNPCDRKGTQACQDLMGNFFCLCKAGWGGRLCDKDVNECSQENGGCLQICHNKPGSFHCSCHSGFELSSDGRTCQDIDECADSEACGEARCKNLPGSYSCLCDEGFAYSSQEKACRDVDECLQGRCEQVCVNSPGSYTCHCDGRGGLKLSQDMDTCEDILPCVPFSVAKSVKSLYLGRMFSGTPVIRLRFKRLQPTRLVAEFDFRTFDPEGILLFAGGHQDSTWIVLALRAGRLELQLRYNGVGRVTSSGPVINHGMWQTISVEELARNLVIKVNRDAVMKIAVAGDLFQPERGLYHLNLTVGGIPFHEKDLVQPINPRLDGCMRSWNWLNGEDTTIQETVKVNTRMQCFSVTERGSFYPGSGFAFYSLDYMRTPLDVGTESTWEVEVVAHIRPAADTGVLFALWAPDLRAVPLSVALVDYHSTKKLKKQLVVLAVEHTALALMEIKVCDGQEHVVTVSLRDGEATLEVDGTRGQSEVSAAQLQERLAVLERHLRSPVLTFAGGLPDVPVTSAPVTAFYRGCMTLEVNRRLLDLDEAAYKHSDITAHSCPPVEPAAA
- uptake of apoptotic cells by macrophages [4]: highest uptake
